From US12201635B2, “Multi-target kinase inhibitor, pharmaceutical composition, and preparation method for multi-target kinase inhibitor and use thereof” (GUANGZHOU LIUSHUN BIOTECHNOLOGY CO., LTD., priority 2019, dated 2025) come the findings set out here.

The target of one test is RET (Homo sapiens, UniProt P07949). Briefly: Z'-LYTE kinase inhibition assay, RET. It counts as biochemical. On the procedure: (§1) 1. The compounds to be detected were accurately weighed and added into DMSO to form stock solutions, which were then diluted to desired concentrations with a buffer to give solutions of the compounds to be detected.
Chain of RET (P07949 29-1114): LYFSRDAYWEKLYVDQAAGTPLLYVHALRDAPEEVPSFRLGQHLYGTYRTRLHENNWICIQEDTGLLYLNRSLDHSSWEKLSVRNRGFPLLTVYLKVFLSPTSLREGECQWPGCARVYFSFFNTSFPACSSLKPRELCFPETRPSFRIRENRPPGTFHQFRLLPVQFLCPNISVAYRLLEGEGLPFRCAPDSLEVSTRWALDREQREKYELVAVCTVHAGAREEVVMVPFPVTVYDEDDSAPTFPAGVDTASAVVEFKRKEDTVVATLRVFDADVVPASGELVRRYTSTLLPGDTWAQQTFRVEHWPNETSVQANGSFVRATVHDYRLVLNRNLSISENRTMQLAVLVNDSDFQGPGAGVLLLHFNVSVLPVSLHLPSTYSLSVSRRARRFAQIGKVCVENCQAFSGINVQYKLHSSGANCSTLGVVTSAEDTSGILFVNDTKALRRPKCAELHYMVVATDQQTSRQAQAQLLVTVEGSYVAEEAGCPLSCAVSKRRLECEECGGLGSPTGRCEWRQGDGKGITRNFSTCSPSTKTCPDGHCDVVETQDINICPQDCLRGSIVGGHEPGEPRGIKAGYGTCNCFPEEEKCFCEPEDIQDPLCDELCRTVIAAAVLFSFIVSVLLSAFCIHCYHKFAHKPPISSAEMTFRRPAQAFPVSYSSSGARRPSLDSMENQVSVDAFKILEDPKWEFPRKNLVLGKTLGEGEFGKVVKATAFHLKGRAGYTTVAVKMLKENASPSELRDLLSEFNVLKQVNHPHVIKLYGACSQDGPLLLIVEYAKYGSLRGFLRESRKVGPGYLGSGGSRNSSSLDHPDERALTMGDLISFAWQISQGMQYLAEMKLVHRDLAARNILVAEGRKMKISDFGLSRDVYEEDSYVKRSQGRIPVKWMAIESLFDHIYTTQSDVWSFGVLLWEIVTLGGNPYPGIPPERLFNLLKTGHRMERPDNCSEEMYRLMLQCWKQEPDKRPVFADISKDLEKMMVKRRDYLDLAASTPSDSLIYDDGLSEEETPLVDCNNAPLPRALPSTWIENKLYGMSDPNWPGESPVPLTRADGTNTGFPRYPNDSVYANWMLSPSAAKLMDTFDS
(§2) 2. An RET or VEGFR3 or PDGFRA kinase solution, corresponding substrate solutions of Z′-LYTE, a buffer or a compound to be detected and ATP were added into a 384 reaction vessel, and reacted at room temperature for 1 h.
(§3) 3. To each well was added a fluorescence enhancer, followed by incubation at room temperature for 1 h.
(§4) 4. Data were read separately using a fluorescence analyzer.
(§5) 1. The relative inhibitory rate for each well was calculated according to a formula.
(§6) 2. Active samples were diluted and tested for relative inhibitory rates, and the inhibitory rates IC50 were calculated by plotting in the software Xlfit.

For another test, the target named is VEGFR3 (Homo sapiens, UniProt P35916). Description: Z'-LYTE kinase inhibition assay, VEGFR3. It counts as biochemical. On the procedure: as §1, §2, §3, §4, §5, §6
Chain of VEGFR3 (P35916 25-1363): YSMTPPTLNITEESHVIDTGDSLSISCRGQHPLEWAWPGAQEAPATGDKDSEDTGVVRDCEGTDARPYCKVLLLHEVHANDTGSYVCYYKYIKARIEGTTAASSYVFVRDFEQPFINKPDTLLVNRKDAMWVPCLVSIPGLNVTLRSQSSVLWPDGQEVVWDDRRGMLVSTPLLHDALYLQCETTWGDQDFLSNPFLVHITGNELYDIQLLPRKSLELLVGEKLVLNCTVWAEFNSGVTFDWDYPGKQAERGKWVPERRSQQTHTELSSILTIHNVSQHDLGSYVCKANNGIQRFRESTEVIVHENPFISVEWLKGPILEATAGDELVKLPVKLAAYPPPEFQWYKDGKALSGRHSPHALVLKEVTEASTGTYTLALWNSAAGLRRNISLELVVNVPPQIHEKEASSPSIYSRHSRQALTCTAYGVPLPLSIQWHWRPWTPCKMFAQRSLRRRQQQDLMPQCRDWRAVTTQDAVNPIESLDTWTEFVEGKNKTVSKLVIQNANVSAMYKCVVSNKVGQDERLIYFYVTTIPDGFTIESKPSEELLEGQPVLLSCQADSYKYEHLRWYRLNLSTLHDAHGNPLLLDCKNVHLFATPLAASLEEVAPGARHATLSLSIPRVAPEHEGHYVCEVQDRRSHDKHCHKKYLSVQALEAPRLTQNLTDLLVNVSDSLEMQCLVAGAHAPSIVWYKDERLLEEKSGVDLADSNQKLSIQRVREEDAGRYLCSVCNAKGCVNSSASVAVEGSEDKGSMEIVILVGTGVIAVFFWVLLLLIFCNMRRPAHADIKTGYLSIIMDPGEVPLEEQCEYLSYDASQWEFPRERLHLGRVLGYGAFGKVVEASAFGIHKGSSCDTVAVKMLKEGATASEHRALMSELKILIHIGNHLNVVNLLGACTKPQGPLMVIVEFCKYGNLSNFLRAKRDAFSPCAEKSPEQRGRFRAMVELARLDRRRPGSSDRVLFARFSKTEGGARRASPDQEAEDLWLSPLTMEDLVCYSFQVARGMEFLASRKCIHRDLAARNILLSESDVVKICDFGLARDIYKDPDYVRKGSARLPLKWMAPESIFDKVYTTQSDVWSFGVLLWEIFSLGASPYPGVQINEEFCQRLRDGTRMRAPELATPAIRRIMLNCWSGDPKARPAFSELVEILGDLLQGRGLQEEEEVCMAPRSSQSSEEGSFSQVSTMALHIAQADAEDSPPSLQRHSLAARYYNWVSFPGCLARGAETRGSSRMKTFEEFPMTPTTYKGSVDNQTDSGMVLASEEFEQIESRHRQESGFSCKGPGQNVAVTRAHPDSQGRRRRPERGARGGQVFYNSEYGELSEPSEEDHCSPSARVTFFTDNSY
The next test concerns the target PDGFRA (Homo sapiens, UniProt P16234). Briefly: Z'-LYTE kinase inhibition assay, PDGFRA. It counts as biochemical. On the procedure: as §1, §2, §3, §4, §5, §6
For the next test, the system named is SMMC-7721 hepatoma. Description: In vivo anti-tumor activity, nude mouse tumor model of SMMC-7721 liver cancer. As to conditions: SMMC-7721 liver cancer mice. From the text:
(§7) In this example, the in vivo anti-tumor activity (liver cancer/esophageal cancer) of the multi-target kinase inhibitor [Compound (I-1)] was investigated according to the requirements in Guidelines for Pharmacodynamics of Anti-tumor Drugs. The experimental procedures and results are as follows:
(§8) Tumor models of nude mice were established using […] heptoma cells and KYSE 410 esophageal cancer cells that meet modeling conditions. The modeled mice were divided into 5 groups: a model group, a Compound (I-1) 5 mg/kg group, a Compound (I-1) 10 mg/kg group, a Compound (I-1) 20 mg/kg group, and a positive control group (sorafenib or cabozantinib). Administration was performed from the day of grouping that was counted as day 1 and for 21 consecutive days, and the 21st day was counted as day21. Tumor volumes were measured twice a week during the period of administration for statistical test.

The test system of test [1] is KYSE 410 esophageal cancer. Briefly: In vivo anti-tumor activity, nude mouse tumor model of KYSE 410 esophageal cancer. The conditions noted are these: KYSE 410 esophageal cancer mice.
Excerpt: as §7, §8

Where [2] appears, read: 5, 10 and 20 mg/kg, 21 consecutive days, day21 ANOVA P<0.0001.
The mark [3] stands for this setting: 10 and 20 mg/kg, positive control sorafenib or cabozantinib.

Chain of PDGFRA (P16234 24-1089): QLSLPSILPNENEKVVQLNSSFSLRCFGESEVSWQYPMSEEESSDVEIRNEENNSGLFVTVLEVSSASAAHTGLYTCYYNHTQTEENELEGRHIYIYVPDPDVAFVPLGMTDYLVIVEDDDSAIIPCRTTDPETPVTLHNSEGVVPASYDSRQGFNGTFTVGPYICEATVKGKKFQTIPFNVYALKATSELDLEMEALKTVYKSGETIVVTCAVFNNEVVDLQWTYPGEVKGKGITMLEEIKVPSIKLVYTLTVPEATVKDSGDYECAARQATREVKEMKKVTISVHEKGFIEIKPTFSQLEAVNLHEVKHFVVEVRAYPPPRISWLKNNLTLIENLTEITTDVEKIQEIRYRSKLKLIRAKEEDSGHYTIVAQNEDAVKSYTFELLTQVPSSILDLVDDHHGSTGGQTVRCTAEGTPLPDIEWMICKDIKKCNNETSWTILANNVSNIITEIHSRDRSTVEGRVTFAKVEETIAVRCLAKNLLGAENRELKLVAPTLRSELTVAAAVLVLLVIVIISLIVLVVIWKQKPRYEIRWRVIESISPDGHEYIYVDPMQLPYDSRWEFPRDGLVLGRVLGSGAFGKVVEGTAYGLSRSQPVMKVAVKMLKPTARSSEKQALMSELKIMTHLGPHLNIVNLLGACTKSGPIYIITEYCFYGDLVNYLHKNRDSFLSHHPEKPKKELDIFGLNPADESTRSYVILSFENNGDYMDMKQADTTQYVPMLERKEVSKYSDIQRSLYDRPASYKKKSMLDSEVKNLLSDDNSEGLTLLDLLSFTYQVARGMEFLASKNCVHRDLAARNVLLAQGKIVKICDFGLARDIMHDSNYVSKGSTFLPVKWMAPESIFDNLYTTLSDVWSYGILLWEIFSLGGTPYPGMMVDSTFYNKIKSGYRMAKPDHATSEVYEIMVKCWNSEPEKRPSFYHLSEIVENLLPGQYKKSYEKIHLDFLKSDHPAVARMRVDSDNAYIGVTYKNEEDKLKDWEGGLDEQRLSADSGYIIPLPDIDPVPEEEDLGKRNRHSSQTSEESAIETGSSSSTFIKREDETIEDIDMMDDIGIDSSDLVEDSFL

For the compound `C=CNC(=O)Nc1ccc(Oc2ncnc3cc(OC)c(OC)cc23)cc1` [Compound I-4], the IC50 (as a rule, the concentration needed to halve the response being measured) amounted to 26 nM against RET, 65 nM on VEGFR3 and 52 nM against PDGFRA.
In the same order, the values of `COc1cc2ncnc(Oc3ccc(NC(=O)NC4CCC4)cc3)c2cc1OC` [Compound I-2] are 37 nM, 16 nM and 308 nM.
In the same order, the values of `COc1cc2ncnc(Oc3ccc(NC(=O)N4CCCCC4)cc3)c2cc1OC` [Compound I-6] are 251 nM, 328 nM and 632 nM.
In the same order, the values of `COc1cc2ncnc(Oc3ccc(NC(=O)NC4CCCC4)cc3)c2cc1OC` [Compound I-3] are 85 nM, 9 nM and 62 nM.
Take `COc1cc2ncnc(Oc3ccc(NC(=O)N4CCCC4)cc3)c2cc1OC` [Compound I-5]: the values for the IC50 against RET, against VEGFR3 and on PDGFRA were 102 nM, 213 nM and 124 nM, respectively.
On to `COc1cc2ncnc(Oc3ccc(NC(=O)NC4CC4)cc3)c2cc1OC` [Compound I-1], for which the IC50 was 12 nM against RET, 30 nM against VEGFR3 and 60 nM against PDGFRA. In addition, the “Tumor volume compared with the model group” value (in the test with SMMC-7721 hepatoma (setting [2]); in test [1] (setting [2])) was “lower tumor volumes” each time. The “Tumor volume compared with the positive control group” value (in the test on SMMC-7721 hepatoma (setting [3]); in test [1] (setting [3])) was “lower tumor volumes” each time.
